Assays:
MARK4 [1] = target: T1, MARK4 (Homo sapiens, UniProt Q96L34); test: Steady-state fluorescence quenching binding studies; conditions: for Kq (bimolecular quenching rate constant): Kq=Ksv/τ0; for ∆G: van't Hoff equation
T1 construct: made in house
T1 sequence (Q96L34 1-752): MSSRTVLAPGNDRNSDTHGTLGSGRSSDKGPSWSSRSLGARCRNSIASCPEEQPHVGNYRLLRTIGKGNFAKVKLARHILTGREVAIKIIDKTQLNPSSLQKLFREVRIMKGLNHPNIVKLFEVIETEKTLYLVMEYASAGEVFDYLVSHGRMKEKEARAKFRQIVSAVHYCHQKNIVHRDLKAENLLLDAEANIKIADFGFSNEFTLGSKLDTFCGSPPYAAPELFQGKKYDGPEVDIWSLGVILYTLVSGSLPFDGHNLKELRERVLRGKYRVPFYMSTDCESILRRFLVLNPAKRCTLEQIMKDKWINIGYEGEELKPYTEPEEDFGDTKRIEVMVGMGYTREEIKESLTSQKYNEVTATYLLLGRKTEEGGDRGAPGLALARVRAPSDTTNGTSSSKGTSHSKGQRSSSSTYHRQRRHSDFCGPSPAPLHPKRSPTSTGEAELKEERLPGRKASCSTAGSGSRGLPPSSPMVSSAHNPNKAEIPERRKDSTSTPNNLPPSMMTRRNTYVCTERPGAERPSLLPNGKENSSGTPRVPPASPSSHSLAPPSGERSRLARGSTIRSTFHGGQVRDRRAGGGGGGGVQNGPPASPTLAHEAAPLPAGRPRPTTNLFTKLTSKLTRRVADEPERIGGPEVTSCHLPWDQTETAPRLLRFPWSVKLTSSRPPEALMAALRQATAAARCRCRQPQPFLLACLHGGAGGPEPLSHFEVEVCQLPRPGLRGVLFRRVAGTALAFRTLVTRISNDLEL
Method: Fluorescence quenching experiments were carried out on Jasco FP-6200 spectrofluorometer attached with an external water bath which serves as a temperature controller. The experiment was carried out at three different temperatures in triplicates. The protein concentration was kept constant at 4 µM while the ligand was titrated in the ratio of 1:9 at all three temperatures (288 K, 298 K, and 305 K). The fluorescence intensities were corrected for the inner filter effect according to Chi & Liu, 2011[57] the following equation:1 Fcorrected=Fobservede^(Aex+Aobs)/2
Aex and Aobs are the absorption of the system at excitation and emission wavelengths, respectively. The fluorescence intensities were corrected after taking filter effect into account and all the reported spectra are the subtracted spectra taking fluorescence of ligand alone. Fluorescence quenching data was further analyzed employing Stern-Volmer, modified Stern-Volmer and van’t Hoff equation.
To analyze the quenching data, Stern Volmer equation (Eq. 2) was deployed to find the Stern-Volmer constant:2 F0/F=1+Ksv[C] where F0 & F are fluorescence intensity of MARK4 in the absence and presence of RA, [C] is the concentration of RA. Ksv refers to Stern–Volmer constant.
The Ksv value decreases with increasing temperature for static quenching while the opposite effect is observed for dynamic quenching. […] Thus, we can say that the MARK4-RA complex formation is driven by the dynamic mode of quenching. The mode of quenching was further confirmed from the value of bimolecular quenching rate constant, Kq, which was calculated as per Eq. 33 Kq=Ksv/τ0 τo refers to the average integral fluorescence lifetime of tryptophan and is reported to be 2.7 × 10^-9 s.
Further, decrease in fluorescence in the presence of RA was analyzed by modified Stern-Volmer equation (Eq. 4)[63],[64].4 logF0−F/F=logK+nlog[C]
Using van’t Hoff equation (Eq. 5)[65], thermodynamic parameters for ligand-protein interaction such as Gibbs free energy change (∆G), enthalpy change (∆H) and entropy change (∆S) can be calculated.5 ΔG=−RTLnK=ΔH−TΔS K is the binding constant, ∆H is enthalpy change, ∆G is Gibbs free energy change, ∆S is entropy change, and R is the universal gas constant (1.987 cal mol^−1 K^−1). The experimental fitting of data as per Eq. 5 is shown in Fig. 6C […]. The slope of this plot gives the value of -∆H/R, and the intercept giving the value of ∆S/R.“T”.

MARK4 [2] = test: MARK4 protein expression by western blot; assay type: cell-based, human; conditions: MDA-MB-231 cells, IC50 concentration, 48 h, immunoblotting
Method: MDA-MB-231 vehicle control or RA treated cells were lysed in RIPA cell lysis buffer (Thermo Fisher Scientific, USA). Total protein was isolated and quantified by Bicinchoninic acid assay kit. Approximately 30–40 μg of whole-cell protein was diluted with 6X Laemmli’s buffer, boiled for 3–5 min and resolved using 12% SDS-polyacrylamide electrophoresis under reducing conditions. The resolved polypeptides were transferred to polyvinylidene fluoride (PVDF) membrane using blotting and identified using protein-specific primary antibodies and horseradish peroxidase conjugated secondary antibodies. Luminol was used as a chemiluminescent substrate for HRP[56].

MDA-MB-231 cells [3] = test: MTT cell viability, MDA-MB-231; assay type: cell-based, human; conditions: MDA-MB-231, 0–200 μM, 72 h
A549 cells = test: MTT cell viability, A549; assay type: cell-based, human; conditions: A549, 0–200 μM, 72 h
Method: The cytotoxicity studies of selected synthesized compounds were accessed using standard MTT assay[16],[58],[59]. Briefly, 5000–6000 cells/well were plated in 96-well cell culture plate and next day cells were treated with selected compounds (0–200 μM) for 72 h. After 72 h incubation, the culture medium was removed and after washing with phosphate buffer saline (pH 7.4) cells were incubated with MTT solution (a mixture of 100 µl in complete medium and 25 µl of MTT solution taken from 5 mg/ml stock), at 37 °C in the CO2 incubator. Afterward, the resultant formazan crystals were dissolved in 150–200 µl of DMSO and the absorbance of the reaction product was measured at 570 nm using a multiplate ELISA reader (BioRad). The percentage of cell viability was calculated and plotted as a function of RA concentration.

MARK4 [4] = target: T1, MARK4; test: ATPase enzyme inhibition assay (malachite green); assay type: biochemical; conditions: RA 0–18 µM, ATP 200 µM, MARK4 4 µM, 25 °C, 1 hour
Method: To see the inhibitory effect of RA on MARK4, an ATPase assay was carried out in the presence of increasing concentrations of RA. Freshly prepared ATP (200 µM) was added to MARK4 (4 µM) and final reaction mixture of 100 μl was incubated at 25 °C for 1 hour. Malachite green (200 μl) was further added to the reaction mixture to stop the reaction followed by incubation of samples at room temperature for 20–25 minutes for the development of color. From the final reaction mixture, 100 μl was transferred to a 96-well plate in triplicates to measure spectrophotometrically at 620 nm.

MARK4 [5] = target: T1, MARK4; test: Isothermal titration calorimetry; assay type: binding
Method: ITC measurements were done at 25 °C on a VP-ITC microcalorimeter from MicroCal, Inc (GE, MicroCal, USA). The first injection was a false one of 2 s with other injections set at 10 s. The sample cell was filled with MARK4 with reference cell with a reference buffer and a syringe containing 500 µM RA was titrated into MARK4. MicroCal Origin 8.0 was used to analyze the obtained data.

MDA-MB-231 cells [6] = test: Cell apoptosis assay (Annexin-V/PI staining); assay type: cell-based, human; conditions: 72 h
Method: Apoptosis inducing properties of RA was studied using Annexin-V/PI staining as described previously[58],[60]. In brief, cells were treated with IC50 and 2 × IC50 doses of RA for 72 h at 37 °C, while control cells were treated with cell culture media only or vehicle control. After 72 h incubation, ~1.0–1.5 × 10^6 cells were collected, washed three times with PBS and stained using FITC labeled Annexin-V and PI (BD-Biosciences, USA). Stained cells were analyzed using BD LSR II Flow Cytometry Analyzer and FlowJo.

phosphorylation of tau = test: Tau-phosphorylation assay (flow cytometry); assay type: cell-based, human; conditions: SH-SY5Y cells, IC50 and 2 × IC50 doses, 48 h, vs untreated cells
Method: To see the effect of RA treatment on the activity of MARK4, Tau-phosphorylation studies were performed as per the previously published protocol. Briefly, SH-SY5Y cells were incubated with IC50 and 2 × IC50 doses of RA. Approximately, 10^6 cells were collected after 48 h treatment, washed with PBS, fixed and incubated with anti-tau antibodies at 25 °C for 2–4 hrs. Following the incubation, cells were washed and analyzed by flow cytometry.

[7] = Binding constant (K), fluorescence quenching studies, temperature not given
[8] = van't Hoff plot, 288, 298 and 305 K

O=c1oc2c(O)c(O)cc3c(=O)oc4c(O)c(O)cc1c4c23 [Ellagic Acid]
Kd (MARK4 [1]; [7]): 9900 µM

COc1cc(/C=C/C(=O)O)ccc1O [Ferulic Acid]
binding constant (K) (MARK4 [1]; fluorescence quenching studies, temperature not given): 50 M⁻¹

O=c1c(O)c(-c2ccc(O)c(O)c2)oc2cc(O)cc(O)c12 [Quercetin]
Kd (MARK4 [1]; [7]): 9760 µM

O=C(/C=C/c1ccc(O)c(O)c1)O[C@H](Cc1ccc(O)c(O)c1)C(=O)O [Rosmarinic acid]
protein expression level of MARK4 (MARK4 [2]): decreases the expression of MARK4
Ksv (Stern-Volmer constant) (MARK4 [1]; 288 K): 11.5 10^5 M^−1
TΔS° (MARK4 [1]; 288 K): -12.0468 kcal/mol
n (number of binding sites) (MARK4 [1]; 288 K): 1.34
Kq (bimolecular quenching rate constant) (MARK4 [1]; 288 K): 4.25 10^14M^-1 s^-1
binding constant (K) (MARK4 [1]; 288 K, double log relation): 5e+06 M⁻¹
∆G (MARK4 [1]; 288 K): -8.956 kcal/mol
Ksv (Stern-Volmer constant) (MARK4 [1]; 298 K): 24.9 10^5 M^−1
TΔS° (MARK4 [1]; 298 K): -12.4651 kcal/mol
n (number of binding sites) (MARK4 [1]; 298 K): 1.22
Kq (bimolecular quenching rate constant) (MARK4 [1]; 298 K): 9.22 10^14M^-1 s^-1
binding constant (K) (MARK4 [1]; 298 K, double log relation): 2e+06 M⁻¹
∆G (MARK4 [1]; 298 K): -8.538 kcal/mol
Ksv (Stern-Volmer constant) (MARK4 [1]; 305 K): 29.4 10^5 M^−1
TΔS° (MARK4 [1]; 305 K): -12.7579 kcal/mol
n (number of binding sites) (MARK4 [1]; 305 K): 1.10
Kq (bimolecular quenching rate constant) (MARK4 [1]; 305 K): 10.88 10^14M^-1 s^-1
binding constant (K) (MARK4 [1]; 305 K, double log relation): 700000 M⁻¹
∆G (MARK4 [1]; 305 K): -8.245 kcal/mol
Kd (MARK4 [1]; [7]): 0.1 µM
Kd (MARK4 [1]; K (binding constant), 288 K, modified Stern-Volmer): 0.2 µM
Kd (MARK4 [1]; K (binding constant), 298 K, modified Stern-Volmer): 0.5 µM
Kd (MARK4 [1]; K (binding constant), 305 K, modified Stern-Volmer): 1.43 µM
∆H (MARK4 [1]; [8]): -21.003 kcal/mol
∆S (MARK4 [1]; [8]): −41.82 calmol^−1K^−1
cell growth / viability (MDA-MB-231 cells [3]): significantly inhibited the growth
cell growth / viability (A549 cells): significantly inhibited the growth
IC50 (MARK4 [4]): 6.2 µM
Kd (MARK4 [5]): 0.227 µM
∆S (MARK4 [5]; ITC, 25 °C): −26.4 cal.mol^−1K^−1
apoptotic cells (MDA-MB-231 cells [6]; MDA-MB-231, 2 × IC50 concentration): 15.90%
apoptotic cells (MDA-MB-231 cells [6]; MDA-MB-231, IC50 concentration): 9.0%
phosphorylation of tau (phosphorylation of tau): decreases phosphorylation of tau

COc1cc(C=O)ccc1O [Vanillin]
Kd (MARK4 [1]; [7]): 6.21 µM

Source: article PMC7316822 (Scientific Reports, 2020)
